Several values for one entry are separate records, joined by “and”; a condition that tells them apart may be missing. Equal entries are not always repeated.
Organism: Rattus norvegicus
Assay: DrugMatrix - Regimen: Daily Repeat
Assay type: toxicity, organism-based, Sprague-Dawley
Set-up: regimen Daily Repeat, gender Male, age 6-8 weeks
Details: in vivo, ip, route intraperitoneal, vehicle 100 % SALINE; for ABSOLUTE BASOPHIL / ABSOLUTE EOSINOPHIL / ABSOLUTE LYMPHOCYTE / ABSOLUTE MONOCYTE / BASOPHIL / EOSINOPHIL / ERYTHROCYTE COUNT / HEMATOCRIT / HEMOGLOBIN / LEUKOCYTE COUNT / LYMPHOCYTE / MEAN CORPUSCULAR HEMOGLOBIN / MEAN CORPUSCULAR HEMOGLOBIN CONCENTRATION / MEAN CORPUSCULAR VOLUME / MONOCYTE / NEUTROPHIL / PLATELET COUNT: tissue Blood; for ALANINE AMINOTRANSFERASE / ALBUMIN / ALKALINE PHOSPHATASE / ASPARTATE AMINOTRANSFERASE / BLOOD UREA NITROGEN / CARBON DIOXIDE / CHOLESTEROL / CREATININE / GLUCOSE / LACTATE DEHYDROGENASE / LIPASE / PHOSPHORUS / POTASSIUM / SODIUM / TOTAL BILIRUBIN / URIC ACID / CHLORIDE: tissue Plasma
[1] = 0 mg/kg, 120 h, dose level Control, time 5 day
[2] = 0 mg/kg, […], dose level Control, time 14 day
[3] = 0 mg/kg, […], dose level Control, time 28 day
[4] = 0.5 mg/kg, 120 h, dose level High, time 5 day
[5] = 0.5 mg/kg, […], dose level High, time 14 day
[6] = 0.5 mg/kg, […], dose level High, time 28 day

Sequence: CISPLATIN
- ABSOLUTE BASOPHIL [1]: 32 cells/µL
- ABSOLUTE EOSINOPHIL [1]: 110 cells/µL
- ABSOLUTE LYMPHOCYTE [1]: 6630 cells/µL
- ABSOLUTE MONOCYTE [1]: 140 cells/µL
- BASOPHIL [1]: 0.38% and 0.35%
- EOSINOPHIL [1]: 1.28% and 0.62%
- ERYTHROCYTE COUNT [1]: 7.45 x10E6/uL and 7.26 x10E6/uL
- HEMATOCRIT [1]: 45.74% and 47.97%
- HEMOGLOBIN [1]: 14.72 G/DL and 15.38 G/DL
- LEUKOCYTE COUNT [1]: 8.11 x10E3/uL and 8.68 x10E3/uL
- LYMPHOCYTE [1]: 81.3% and 86.77%
- MEAN CORPUSCULAR HEMOGLOBIN [1]: 19.76 pg and 21.18 pg
- MEAN CORPUSCULAR HEMOGLOBIN CONCENTRATION [1]: 32.16 G/DL and 32.05 G/DL
- MEAN CORPUSCULAR VOLUME [1]: 61.38 fL and 66.15 fL
- MONOCYTE [1]: 1.76% and 1.57%
- NEUTROPHIL [1]: 14.9% and 9.53%
- PLATELET COUNT [1]: 1322.4 x10E3/uL and 1786 x10E3/uL
- ALANINE AMINOTRANSFERASE [1]: 25.8 u/L and 20.5 u/L
- ALBUMIN [1]: 3.64 G/DL and 4.35 G/DL
- ALKALINE PHOSPHATASE [1]: 300 u/L
- ASPARTATE AMINOTRANSFERASE [1]: 81.4 u/L and 86.75 u/L
- BLOOD UREA NITROGEN [1]: 14.4 mg/dL and 17 mg/dL
- CARBON DIOXIDE [1]: 29 mmol/L
- CHOLESTEROL [1]: 69.2 mg/dL and 51.25 mg/dL
- CREATININE [1]: 0.56 mg/dL and 0.47 mg/dL
- GLUCOSE [1]: 125.4 mg/dL and 128.75 mg/dL
- LACTATE DEHYDROGENASE [1]: 105.4 u/L and 145 u/L
- LIPASE [1]: 22.4 u/L and 13.25 u/L
- PHOSPHORUS [1]: 11.8 mg/dL
- POTASSIUM [1]: 5.52 MEQ/L and 6.58 MEQ/L
- SODIUM [1]: 147 MEQ/L and 151 MEQ/L
- TOTAL BILIRUBIN [1]: 0.2 mg/dL and 0.33 mg/dL
- URIC ACID [1]: 1.06 mg/dL and 1.95 mg/dL
- ABSOLUTE BASOPHIL [2]: 130 cells/µL
- ABSOLUTE EOSINOPHIL [2]: 140 cells/µL
- ABSOLUTE LYMPHOCYTE [2]: 13500 cells/µL
- ABSOLUTE MONOCYTE [2]: 400 cells/µL
- HEMATOCRIT [2]: 45.98%
- HEMOGLOBIN [2]: 15.17 G/DL
- MEAN CORPUSCULAR VOLUME [2]: 59.4 fL
- NEUTROPHIL [2]: 14.14%
- ABSOLUTE BASOPHIL [3]: 91 cells/µL
- ABSOLUTE EOSINOPHIL [3]: 110 cells/µL
- ABSOLUTE LYMPHOCYTE [3]: 9910 cells/µL
- ABSOLUTE MONOCYTE [3]: 210 cells/µL
- BASOPHIL [3]: 0.77%
- EOSINOPHIL [3]: 0.92%
- ERYTHROCYTE COUNT [3]: 8.21 x10E6/uL
- HEMATOCRIT [3]: 47.53%
- HEMOGLOBIN [3]: 15.65 G/DL
- LEUKOCYTE COUNT [3]: 11.91 x10E3/uL
- LYMPHOCYTE [3]: 83.34%
- MEAN CORPUSCULAR HEMOGLOBIN [3]: 19.07 pg
- MEAN CORPUSCULAR HEMOGLOBIN CONCENTRATION [3]: 32.93 G/DL
- MEAN CORPUSCULAR VOLUME [3]: 57.9 fL
- MONOCYTE [3]: 1.68%
- NEUTROPHIL [3]: 12.97%
- PLATELET COUNT [3]: 1323.8 x10E3/uL
- ALBUMIN [2]: 3.66 G/DL
- CARBON DIOXIDE [2]: 25 mmol/L
- CHLORIDE [2]: 107 MEQ/L
- SODIUM [2]: 149.2 MEQ/L
- URIC ACID [2]: 0.94 mg/dL
- ALANINE AMINOTRANSFERASE [3]: 30 u/L
- ALBUMIN [3]: 3.71 G/DL
- ALKALINE PHOSPHATASE [3]: 186.8 u/L
- ASPARTATE AMINOTRANSFERASE [3]: 78.2 u/L
- BLOOD UREA NITROGEN [3]: 14.2 mg/dL
- CHOLESTEROL [3]: 44.9 mg/dL
- CREATININE [3]: 0.6 mg/dL
- GLUCOSE [3]: 147.2 mg/dL
- LACTATE DEHYDROGENASE [3]: 123.1 u/L
- LIPASE [3]: 9.6 u/L
- PHOSPHORUS [3]: 10.01 mg/dL
- POTASSIUM [3]: 6.57 MEQ/L
- SODIUM [3]: 149.5 MEQ/L
- TOTAL BILIRUBIN [3]: 0.21 mg/dL
- URIC ACID [3]: 1.26 mg/dL
- ABSOLUTE BASOPHIL [4]: 26 cells/µL
- ABSOLUTE EOSINOPHIL [4]: 92 cells/µL
- ABSOLUTE LYMPHOCYTE [4]: 5270 cells/µL
- ABSOLUTE MONOCYTE [4]: 150 cells/µL
- BASOPHIL [4]: 0.36% and 0.28%
- EOSINOPHIL [4]: 1.46% and 0.85%
- ERYTHROCYTE COUNT [4]: 7.52 x10E6/uL and 7.82 x10E6/uL
- HEMATOCRIT [4]: 46.92% and 52.02%
- HEMOGLOBIN [4]: 16.7 G/DL
- LEUKOCYTE COUNT [4]: 6.24 x10E3/uL and 6.92 x10E3/uL
- LYMPHOCYTE [4]: 84.62% and 88.4%
- MEAN CORPUSCULAR HEMOGLOBIN [4]: 20.1 pg and 21.33 pg
- MEAN CORPUSCULAR HEMOGLOBIN CONCENTRATION [4]: 32.2 G/DL and 32.05 G/DL
- MEAN CORPUSCULAR VOLUME [4]: 66.5 fL
- MONOCYTE [4]: 2.36% and 1.6%
- NEUTROPHIL [4]: 10.88% and 7.72%
- PLATELET COUNT [4]: 1593.2 x10E3/uL and 1552.25 x10E3/uL
- ALANINE AMINOTRANSFERASE [4]: 25 u/L and 19.25 u/L
- ALBUMIN [4]: 3.66 G/DL and 4.4 G/DL
- ALKALINE PHOSPHATASE [4]: 215.2 u/L and 294.25 u/L
- ASPARTATE AMINOTRANSFERASE [4]: 75.2 u/L and 87.5 u/L
- BLOOD UREA NITROGEN [4]: 13.8 mg/dL and 15 mg/dL
- CARBON DIOXIDE [4]: 25.25 mmol/L
- CHLORIDE [4]: 106.6 MEQ/L and 107.25 MEQ/L
- CHOLESTEROL [4]: 54.4 mg/dL and 68 mg/dL
- CREATININE [4]: 0.54 mg/dL and 0.5 mg/dL
- GLUCOSE [4]: 136.8 mg/dL and 138.75 mg/dL
- LIPASE [4]: 26.8 u/L and 10 u/L
- POTASSIUM [4]: 5.54 MEQ/L and 5.67 MEQ/L
- SODIUM [4]: 146.2 MEQ/L and 152.25 MEQ/L
- TOTAL BILIRUBIN [4]: 0.18 mg/dL and 0.43 mg/dL
- URIC ACID [4]: 1.34 mg/dL and 2.38 mg/dL
- ABSOLUTE BASOPHIL [5]: 36 cells/µL
- ABSOLUTE EOSINOPHIL [5]: 56 cells/µL
- ABSOLUTE LYMPHOCYTE [5]: 7470 cells/µL
- ABSOLUTE MONOCYTE [5]: 180 cells/µL
- MEAN CORPUSCULAR HEMOGLOBIN [5]: 19.97 pg
- ABSOLUTE BASOPHIL [6]: 87.8 cells/µL
- ABSOLUTE EOSINOPHIL [6]: 85.6 cells/µL
- ABSOLUTE LYMPHOCYTE [6]: 8670 cells/µL
- ABSOLUTE MONOCYTE [6]: 180 cells/µL
- BASOPHIL [6]: 0.8%
- EOSINOPHIL [6]: 0.83%
- ERYTHROCYTE COUNT [6]: 9.05 x10E6/uL
- HEMATOCRIT [6]: 52.96%
- HEMOGLOBIN [6]: 17.03 G/DL
- LEUKOCYTE COUNT [6]: 10.42 x10E3/uL
- LYMPHOCYTE [6]: 83.03%
- MEAN CORPUSCULAR HEMOGLOBIN [6]: 18.84 pg
- MEAN CORPUSCULAR HEMOGLOBIN CONCENTRATION [6]: 32.23 G/DL
- MEAN CORPUSCULAR VOLUME [6]: 58.53 fL
- MONOCYTE [6]: 1.62%
- NEUTROPHIL [6]: 13.3%
- PLATELET COUNT [6]: 1272.33 x10E3/uL
- ALBUMIN [5]: 3.38 G/DL
- CARBON DIOXIDE [5]: 22.25 mmol/L
- CHLORIDE [5]: 111.6 MEQ/L
- ALANINE AMINOTRANSFERASE [6]: 30.78 u/L

Source: ChEMBL document CHEMBL3885881, “DrugMatrix”
